Measured values reported in the supplement of paper PMC11208160.
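Note: IS621 bridge recombinase in Escherichia coli cells against a fixed T5 target plasmid.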

Assay: recombinant UMI read abundance after kanamycin selection (control-corrected) (log10(CPM+1)); higher = more efficient recombination; extreme values may be limits of the assay; sequences stand for … in AGTGCAGAGAAAATCGGCCAGTTTTCTCTGCCTGCAGTCCGCATGCCGTGGGACCCCTTGGGTTCTAACCTGTTGCCTAGATTTATGCAGCGGACTGCCTTTCTCCCAAAGTGATAAACCGG…AGGTTGGTTTCACT; site = the 11-nt donor
In short: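 In a pooled Escherichia coli screen for the IS621 bridge recombinase, donor and donor-binding-loop pairs were each placed with a 12-nt UMI on a plasmid bearing a promoterless kanamycin gene. This library was co-electroporated with a target plasmid encoding a fixed target and T7-inducible recombinase, and cells were plated either on IPTG (0.07 mM) plus kanamycin or without selection, in two replicates each. Recombinant UMIs were PCR-amplified across the donor–target junction and sequenced, and counts were converted to CPM, averaged over replicates, scaled by control-derived factors and reported as log10(CPM+1).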
In the case of “ACTACTGCATGGACCGGTTTTCCCGGTAATCCGTATTTGGT (site ACTATTGCTAC)”, the “recombinant UMI read abundance (log10)” value is reported as 0.00304.
In the case of “ACTAGCACATGGACCGGTTTTCCCGGTAATCCGTATTTGAG (site ACTAGAACTCT)”, the “recombinant UMI read abundance (log10)” value is reported as 0.495.
In the case of “ACTAGCACATGGACCGGTTTTCCCGGTAATCCGTATTTGAG (site ACTAGCACTCT)”, the “recombinant UMI read abundance (log10)” value is reported as 1.48.
With “ACTAGCACATGGACCGGTTTTCCCGGTAATCCGTATTTGAG (site ACTAGGACTCT)” the “recombinant UMI read abundance (log10)” value was 0.0266.
With “ACTAGCACATGGACCGGTTTTCCCGGTAATCCGTATTTGAG (site ACTAGTACTCT)” the “recombinant UMI read abundance (log10)” value was 0.517.
In the case of “ACTAGCTCATGGACCGGTTTTCCCGGTAATCCGTATTTGTT (site ACTAGCTCTAA)”, the “recombinant UMI read abundance (log10)” value is reported as 0.346.
In the case of “ACTAGGACATGGACCGGTTTTCCCGGTAATCCGTATTTGCT (site ACTAGGACTAG)”, the “recombinant UMI read abundance (log10)” value is reported as 2.36.
With “ACTAGGGCATGGACCGGTTTTCCCGGTAATCCGTATTTGAG (site ACTAGGGCTCT)” the “recombinant UMI read abundance (log10)” value was 1.52.
With “ACTAGTGCATGGACCGGTTTTCCCGGTAATCCGTATTTGAT (site ACTAGTGCTAA)” the “recombinant UMI read abundance (log10)” value was 0.0209.
With “ACTAGTGCATGGACCGGTTTTCCCGGTAATCCGTATTTGAT (site ACTAGTGCTAC)” the “recombinant UMI read abundance (log10)” value was 0.0203.
With “ACTAGTGCATGGACCGGTTTTCCCGGTAATCCGTATTTGAT (site ACTAGTGCTAG)” the “recombinant UMI read abundance (log10)” value was 0.00388.
For “ACTAGTGCATGGACCGGTTTTCCCGGTAATCCGTATTTGAT (site ACTAGTGCTAT)”, the “recombinant UMI read abundance (log10)” value was 2.1.
For “ACTAGTGCATGGACCGGTTTTCCCGGTAATCCGTATTTGCT (site ACTAGTGCTAA)”, the “recombinant UMI read abundance (log10)” value was 0.335.
In the case of “ACTAGTGCATGGACCGGTTTTCCCGGTAATCCGTATTTGCT (site ACTAGTGCTAC)”, the “recombinant UMI read abundance (log10)” value is reported as 0.00908.
For “ACTAGTGCATGGACCGGTTTTCCCGGTAATCCGTATTTGCT (site ACTAGTGCTAG)”, the “recombinant UMI read abundance (log10)” value was 1.37.
For “ACTAGTGCATGGACCGGTTTTCCCGGTAATCCGTATTTGCT (site ACTAGTGCTAT)”, the “recombinant UMI read abundance (log10)” value was 0.0101.
For “ACTATTCCATGGACCGGTTTTCCCGGTAATCCGTATTTGGT (site ACTATTCCTAC)”, the “recombinant UMI read abundance (log10)” value was 0.00382.
For “ACTCAACCATGGACCGGTTTTCCCGGTAATCCGTATTTGGT (site ACTCAACCTAC)”, the “recombinant UMI read abundance (log10)” value was 0.00884.
With “ACTCCGCCATGGACCGGTTTTCCCGGTAATCCGTATTTGTG (site ACTCCGCCTCA)” the “recombinant UMI read abundance (log10)” value was 0.0108.
In the case of “ACTCCGTCATGGACCGGTTTTCCCGGTAATCCGTATTTGAT (site ACTCCGTCTAT)”, the “recombinant UMI read abundance (log10)” value is reported as 0.697.
With “ACTCGCACATGGACCGGTTTTCCCGGTAATCCGTATTTGAC (site ACTCGCACTGT)” the “recombinant UMI read abundance (log10)” value was 2.68.
With “ACTCGGTCATGGACCGGTTTTCCCGGTAATCCGTATTTGTT (site ACTCGGTCTAA)” the “recombinant UMI read abundance (log10)” value was 0.936.
With “ACTCGTGCATGGACCGGTTTTCCCGGTAATCCGTATTTGAC (site ACTCGTGCTGT)” the “recombinant UMI read abundance (log10)” value was 2.56.
In the case of “ACTCGTGCATGGACCGGTTTTCCCGGTAATCCGTATTTGAG (site ACTCGTGCTCT)”, the “recombinant UMI read abundance (log10)” value is reported as 1.4.
In the case of “ACTCTTTCATGGACCGGTTTTCCCGGTAATCCGTATTTGTT (site ACTCTTTCTAA)”, the “recombinant UMI read abundance (log10)” value is reported as 0.0432.
For “ACTGAGGCATGGACCGGTTTTCCCGGTAATCCGTATTTGAA (site ACTGAGGCTTT)”, the “recombinant UMI read abundance (log10)” value was 1.73.
With “ACTGCAGCATGGACCGGTTTTCCCGGTAATCCGTATTTGCA (site ACTGCAGCTTG)” the “recombinant UMI read abundance (log10)” value was 1.21.
In the case of “ACTGTACCATGGACCGGTTTTCCCGGTAATCCGTATTTGCA (site ACAGTATCTTG)”, the “recombinant UMI read abundance (log10)” value is reported as 0.00951.
In the case of “ACTGTACCATGGACCGGTTTTCCCGGTAATCCGTATTTGCA (site ACTGTACCTTG)”, the “recombinant UMI read abundance (log10)” value is reported as 0.
In the case of “ACTGTGTCATGGACCGGTTTTCCCGGTAATCCGTATTTGAC (site AATGTGTCTGT)”, the “recombinant UMI read abundance (log10)” value is reported as 0.
In the case of “ACTGTGTCATGGACCGGTTTTCCCGGTAATCCGTATTTGAC (site ACTGTGTCTGT)”, the “recombinant UMI read abundance (log10)” value is reported as 0.
In the case of “ACTGTGTCATGGACCGGTTTTCCCGGTAATCCGTATTTGAC (site AGTGTGTCTGT)”, the “recombinant UMI read abundance (log10)” value is reported as 0.
For “ACTGTGTCATGGACCGGTTTTCCCGGTAATCCGTATTTGAC (site ATTGTGTCTGT)”, the “recombinant UMI read abundance (log10)” value was 0.
In the case of “ACTTAATCATGGACCGGTTTTCCCGGTAATCCGTATTTGTA (site ACTTAATCTTA)”, the “recombinant UMI read abundance (log10)” value is reported as 2.15.
With “ACTTAGTCATGGACCGGTTTTCCCGGTAATCCGTATTTGCC (site ACTTAGTCTGG)” the “recombinant UMI read abundance (log10)” value was 2.47.
With “ACTTATGCATGGACCGGTTTTCCCGGTAATCCGTATTTGGA (site AATTATGCTTC)” the “recombinant UMI read abundance (log10)” value was 0.425.
In the case of “ACTTATGCATGGACCGGTTTTCCCGGTAATCCGTATTTGGA (site ACTTATGCTTC)”, the “recombinant UMI read abundance (log10)” value is reported as 1.41.
